Data published in a melting point compilation (Tetko et al.; mined from patent text by program, amines drawn as free bases though some values may be those of a salt).

First: CSCCCN1C(=O)C(NC(=O)c2cc3ccccc3[nH]2)N=C(c2ccccc2)c2ccccc21 (racemic)
Second: O=C1NN(C(=O)c2cc3ccccc3[nH]2)C(c2ccccc2)C1c1ccccc1 (configuration not stated)
The melting point of the first is lower: 216 to 221 °C for the first, 248 to 250 °C for the second.

First: OCc1cccn1CCN1CCC(=C2c3ccccc3CCn3ccnc32)CC1
Second: O=C1Cc2cc(C(=O)N3CCN(CCC(=O)c4ccccc4)CC3)ccc2N1
The melting point of the first is lower: 147 °C for the first, 208 to 210 °C for the second.

First: CC(C)(C)c1cc(C(C)(C)c2cc(C(C)(C)C)c(O)c(C(C)(C)C)c2)cc(C(C)(C)C)c1O
Second: CC(C)(C)c1cc(CCc2ccccc2NC(=O)NCCc2ccc([N+](=O)[O-])cc2)cc(C(C)(C)C)c1O
The melting point of the first is higher: 148 to 154 °C for the first, 134 to 136 °C for the second.

First: COc1ccc(-c2cc(COS(C)(=O)=O)c(=O)n(Cc3ccc(Cl)cc3)n2)cc1F
Second: CS(=O)(=O)c1ccc(-c2cnn(-c3ccc(F)cc3)c(=O)c2OCCC2CC2)cc1
The melting point of the first is higher: 156 to 157 °C for the first, 111 to 117 °C for the second.

Compared with C[C@@H](NS(=O)(=O)c1cccs1)c1cccc(C(=O)c2ccco2)c1, O=C(c1ccccc1)c1cc(Cl)ccc1-n1ccnc1 is higher in melting point: 105 to 106 °C for the first, 106 to 108 °C for the second.

Compared with O=C(Nc1cc(C(F)(F)F)cc(C(F)(F)F)c1)c1ccccc1SSc1ccccc1C(=O)Nc1cc(C(F)(F)F)cc(C(F)(F)F)c1, O=C(Nc1cc(C(F)(F)F)ccc1N1CCc2ccccc21)c1ccccc1F is lower in melting point: 213 to 214 °C for the first, 127 to 130 °C for the second.

First: Cc1nc(Sc2cc(C(F)(F)F)ccn2)sc1CC(=O)O
Second: CN(CCc1c[nH]c2ccc(NC(N)=O)cc12)C(=O)C(F)(F)F
The melting point of the first is lower: 122 to 123 °C for the first, 193 to 194 °C for the second.

First: COc1c(C)sc2nc(SCc3ccccc3)nn12
Second: COc1c(Cc2ccccc2)ccc2ccccc12
The melting point of the first is higher: 101 to 103 °C for the first, 56 to 59 °C for the second.

Compared with CC(C)(C)OC(=O)N1CCN(c2ccc(NC(=O)Nc3cc(Cl)ccc3N)cc2)CC1, O=C(CNc1ccc(F)c(F)c1)Nc1c(Cl)ccc2nc(N3CC[C@@H](O)C3)ccc12 is higher in melting point: 187 to 189 °C for the first, 238 to 240 °C for the second.

First: COc1cc(F)c(C)cc1C#N
Second: CCOC(=O)Nc1cc(F)c(C#N)cc1F
The melting point of the first is lower: 99 to 101 °C for the first, 107 °C for the second.

First: CC1Oc2c(cc(CN3CCN(c4ccc(C(=O)NC5CC5)cc4)CC3)cc2-c2ccccc2)NC1=O (configuration not stated)
Second: CC(C)(C)c1cc(C(=O)NNC(=O)c2occ(-c3ccccc3)c2-c2ccccc2)ccc1O
The melting point of the first is lower: 217 to 224 °C for the first, 244 to 247 °C for the second.

First: O=c1[nH]c2c(F)cc([N+](=O)[O-])cc2o1
Second: Cc1ccc([N+](=O)[O-])c2[nH]ccc(=O)c12
The melting point of the first is lower: 177 to 179 °C for the first, 219 to 225 °C for the second.

Compared with CS(=O)(=O)c1ccc(-n2nc(C(F)(F)F)cc2-c2ccc(-c3cscn3)cc2)cc1, O=C1OC(CCl)CN1c1ccc(S(=O)(=O)C(F)(F)F)cc1 (configuration not stated) is lower in melting point: 168 to 170 °C for the first, 121 to 123 °C for the second.

First: COc1ccc(C=CC(=O)CC(=O)C=Cc2ccc(OC)cc2)cc1
Second: COc1ccc(Cc2ccc(CO)cc2)cc1
The melting point of the first is higher: 154 to 155 °C for the first, 68 to 72 °C for the second.

First: CC12CC3OC3CC1CCC1C2CCC2(C)C(O)C(N3CCCC3)CC12 (configuration not stated)
Second: CC1CC(=O)C=C2C=CC3C4CCC(=O)C4(C)CCC3C21C (configuration not stated)
The melting point of the first is lower: 156 to 160 °C for the first, 171 °C for the second.

First: CCOC(=O)c1ncn2c1[C@@H]1CCCN1C(=O)c1c(Cl)cccc1-2
Second: CCOC(=O)c1c(C)cc2c(c1C)c(=O)n(-c1ccccc1Cl)c(=O)n2CC(=O)N1CCN(C)CC1
The melting point of the first is higher: 182 to 184 °C for the first, 64 to 65 °C for the second.

Compared with O=C(CCl)NOC(c1ccccc1)c1ccccc1, CNC(=O)c1ccc2c(c1)OC(c1ccccc1)(c1ccccc1)O2 is higher in melting point: 115 to 117 °C for the first, 144 to 145 °C for the second.

O=C(O)CCC#Cc1ccccc1Br and Cc1oc(-c2ccccc2)nc1C(=O)CBr cannot be ordered by melting point: 87 to 91 °C for the first, 88 to 89 °C for the second.

First: O=C(Nc1cccnn1)N1CCN(c2nccc(-c3ccc(F)cc3F)n2)CC1
Second: CC(C(=O)O)c1ccc(-c2ccc(F)cc2F)c(F)c1 (configuration not stated)
The melting point of the first is higher: 184 to 185 °C for the first, 105 to 108 °C for the second.

Compared with COc1c(N2C[C@H]3CC=C[C@@]3(N)C2)c(F)cc2c(=O)c(C(=O)O)cn([C@@H]3C[C@@H]3F)c12, CN[C@@H]1CN(c2c(F)cc3c(=O)c(C(=O)O)cn([C@@H]4C[C@@H]4F)c3c2C)C[C@@H]1C(C)C is lower in melting point: 206 to 208 °C for the first, 168 to 171 °C for the second.

First: COc1ccc(C=C(C#N)c2ccc(F)cc2)cc1OC1CCCC1
Second: COc1ccc2[nH]c(C(=O)C3(c4ccc(Cl)cc4)CCCC3)cc2c1
The melting point of the first is lower: 139 to 141 °C for the first, 157 to 159 °C for the second.

First: Clc1ccc(-c2n[nH]c(-c3ccncc3)n2)cc1
Second: CC(O)(CCN)c1ccc(-c2ccc(F)cc2)cc1 (configuration not stated)
The melting point of the first is higher: 264 to 266 °C for the first, 144 to 146 °C for the second.

First: CNC(=O)c1cccc(Nc2nc(Nc3ccc4c(c3)C(C)(C)CCC(=O)N4)ncc2Cl)c1
Second: Nc1cc2c(Nc3ccc(OCc4ccccn4)c(Cl)c3)ncnc2cn1
The melting point of the first is lower: 184 °C for the first, 247 to 250 °C for the second.

First: COC(=O)CCCC#Cc1cc(Cl)ccc1NS(=O)(=O)c1ccc2nc(C)sc2c1
Second: CCSc1cc(C)nc(SCC)c1NC(=O)CSc1nc2ccccc2s1
The melting point of the first is lower: 103 to 106 °C for the first, 119 to 120 °C for the second.

First: CNC(=O)NC1(C)CCCc2sccc21 (configuration not stated)
Second: COc1cccc(C(=O)C=C2CCCN2C)c1
The melting point of the first is higher: 135 to 145 °C for the first, 92 to 93 °C for the second.

Compared with CCOC(=O)C(=O)c1cn(CCN2CCOCC2)c2ccccc12, CC1(C)Cc2c(N)c(Cl)cc(C(=O)NC3CCN(CCCNc4nc(O)c5ccccc5n4)CC3)c2O1 is higher in melting point: 99 to 100 °C for the first, 160 °C for the second.

First: OCc1cnoc1-c1ccc(F)c(Br)c1
Second: Cc1nn(C)c(N)c1C(=O)Nc1ccccc1F
The melting point of the first is higher: 134 to 135 °C for the first, 101 to 103 °C for the second.

First: CCCCCCCCCCCCOC(=O)COCC(=O)O
Second: CCCCCCCCCCNC(=O)C1CSC(c2cccnc2)N1 (configuration not stated)
The melting point of the first is lower: 57 to 59 °C for the first, 88 °C for the second.

First: Cc1cc(C2=NNC(=O)CC2)c2c(c1)N(C)C(=O)CO2
Second: COc1cccc2c(C)c3n(c(=O)c12)CCCS3
The melting point of the first is higher: 266 to 270 °C for the first, 122 to 123 °C for the second.

First: COc1cc2c(cn1)OCC21C(=O)N(CC2CCCO2)c2ccccc21 (configuration not stated)
Second: COCc1nc2c(OCc3ccccc3)cccc2n1C
The melting point of the first is higher: > 250 °C for the first, 120 to 122 °C for the second.

Compared with O=C(O)CCc1ccc2c(c1)OCO2, O=C(O)CCC1CC(O)C(=O)N1 (configuration not stated) is higher in melting point: 86.1 to 88.3 °C for the first, 129 to 132 °C for the second.

First: COc1c(Cl)ccc(-c2nc(OC)c3c(ncn3C)n2)c1F
Second: COc1ccc(C#Cc2ccc3c(Nc4cc(OC)c(Cl)cc4Cl)c(C#N)cnc3c2)cc1
The melting point of the first is lower: 191 to 192 °C for the first, 225 to 226 °C for the second.

Compared with COc1c(F)cc2[nH]c(C)c(CC(=O)O)c2c1F, COc1c(C)c2c(c(O)c1C/C=C(\C)C(O)C(C)(C)C(=O)O)C(=O)OC2 (configuration not stated) is higher in melting point: 176 to 178 °C for the first, 180 to 181 °C for the second.

First: CC(C)=CCS(=O)(=O)c1ccc(C)cc1
Second: CCOC(=O)Cc1cc(C)c(C(=O)c2ccc(C)cc2)n1C
The melting point of the first is lower: 71 to 72 °C for the first, 90 to 93 °C for the second.

First: O=C(O)C1(c2ccccc2)CCC2(CC1)OCCO2
Second: CC(=O)SCCCn1cc(C2=C(c3cn(C)c4ccccc34)C(=O)NC2=O)c2ccccc21
The melting point of the first is lower: 134 to 139 °C for the first, 210 to 213 °C for the second.

First: COCc1c(C(=O)OC(C)C)ncc2[nH]c3cccc(Cc4ccccc4Cl)c3c12
Second: CNCCCOc1ccc(S(=O)(=O)c2[nH]c3ccccc3c2C(C)C)cc1
The melting point of the first is higher: 187 to 189 °C for the first, 115 °C for the second.

First: COc1cc(C(=O)Nc2c(C)cc3cn(C(=O)OC(C)(C)C)nc3c2C(=O)NC(C)C)n(N2C=CC=C(Cl)C2)n1
Second: Cn1c(CNCC(C)(C)S(C)(=O)=O)cc2cc(NC(=O)c3ccc(OCC4CC4)cc3)ccc21
The melting point of the first is lower: 161 to 162 °C for the first, 168 to 169 °C for the second.

First: NC1=Nc2ccc(OC(F)(F)F)cc2SC1
Second: NC1=Nc2ccc(I)cc2C(c2ccccn2)=NC1
The melting point of the first is lower: 94 to 96 °C for the first, 228 to 229 °C for the second.

First: CN(C)c1ccc(CNC(=O)c2cccnc2Oc2ccc(F)cc2)cc1
Second: CCCCNC(=O)C(C)Oc1ccc(COc2ccc(Cl)cc2)cc1 (configuration not stated)
The melting point of the first is higher: 99.5 to 102 °C for the first, 98 °C for the second.

First: CNc1nc(C)c(-c2nc3ccccc3c(=O)n2-c2ccccc2C)s1
Second: Cc1sc(-c2ccccc2)nc1COc1ccc(C=O)cc1
The melting point of the first is higher: 218 to 220 °C for the first, 118 to 119 °C for the second.

Going from C=CCC(=O)Nc1n[nH]c2cc(Cl)ccc12 to O=c1c2cc(Cl)ccc2nc2n1CS(=O)(=O)N2, the melting point rises from 150 °C to > 300 °C.

First: COC(=O)c1cc2c(Nc3ncccn3)cccc2s1
Second: Cc1[nH]c2ncnc(Nc3cccc(F)c3)c2c1C
The melting point of the first is lower: 206 to 208 °C for the first, 245 to 255 °C for the second.

First: CCOC(=O)c1cnc(N(C)C)nc1
Second: CCOC(=O)c1c[nH]c2c(C#N)c(CCCNC)nn2c1=O
The melting point of the first is lower: 65 °C for the first, 285 to 287 °C for the second.

First: Cc1cc(-c2nnn(C)n2)cc(C)c1OCCCC(O)c1nccn1C (configuration not stated)
Second: CC(C)Cc1ccccc1Sc1c(O)cc(-c2ccccc2)oc1=O
The melting point of the first is lower: 151 to 154 °C for the first, 195 °C for the second.

First: CCCc1c(OCC#CCSCCO)ccc(C(C)=O)c1O
Second: Cc1oc2cccc(OCC#N)c2c1C
The melting point of the first is higher: 52 to 53 °C for the first, 50 to 52 °C for the second.

First: CCOC(=O)C1(C(=O)O)Cc2cc(OC)c(OC)cc2C1
Second: COC(=O)c1ccc(S(C)(=O)=O)c(C=NO)c1C
The melting point of the first is higher: 146 to 148 °C for the first, 123 to 129 °C for the second.

Compared with O=C1c2ccccc2C(=O)N1CC(Cc1c[nH]c([N+](=O)[O-])n1)ON1C(=O)c2ccccc2C1=O (configuration not stated), CC(C)N1CCC(C(=O)OC2c3ccccc3C(=O)N2c2ccc3ccc(Cl)nc3n2)CC1 (configuration not stated) is higher in melting point: 119 to 121 °C for the first, 184 °C for the second.

First: CC(C)[C@H](NC(=O)N(C)Cc1ccccn1)C(=O)N[C@@H](Cc1ccccc1)C[C@H](O)[C@H](Cc1ccccc1)NC(=O)OCc1cccnc1
Second: COc1ccccc1NC(=O)Nc1nc(Oc2ccc3ccccc3c2)nc(N(C)CCC(=O)O)n1
The melting point of the first is lower: 58 to 61 °C for the first, 178 to 180 °C for the second.

Compared with CC(C)(C(=O)NC(Nc1c(Nc2cccnc2)c(=O)c1=O)C(C)(C)C)c1ccccc1 (configuration not stated), CNC(=O)Nc1ccc(-c2c[nH]c(=O)cn2)cc1 is higher in melting point: 247 to 248 °C for the first, > 300 °C for the second.

First: CCCC(C(C)=CC(CNC(=O)c1cccnc1)=NO)[N+](=O)[O-] (configuration not stated)
Second: N#CCCC=NNc1ccc(CS(N)(=O)=O)cc1
The melting point of the first is lower: 128 to 131 °C for the first, 175 to 176 °C for the second.

Going from Cc1cc(C(O)=S)cc(N)c1Cl to CSc1sc(C(=O)O)c2c1-c1oc(C)nc1CC2, the melting point rises from 225 °C to > 300 °C.
